Tests used:
[1] = test system: self complementary duplex; test: Tm of self complementary duplexes of dual labeled SBC-LNA probes; format: binding; conditions: Table 7, duplexes 2 μM, 0.1 M NaCl, 10 mM Na-phosphate pH 7.0, 1 mM EDTA
Description: (§1) (entry 1) to 53.5° C. (entry 2) thus verifying the reduced strength of the intramolecular hydrogen bonds of the self complementary oligonucleotide. At the same time the oligonucleotides containing the SBC LNA monomers are able to hybridize to complementary DNA due to the increased binding efficiency of LNA-D and LNA-^2SU. Similarly as exemplified in Table 8 (see below) the Tm of a duplex between 2 complementary oligonucleotides containing e.g. 3 SBC LNA pairs (entry 3) is reduced to 59° C. from the corresponding non-SBC LNA duplex (82° C.-entry 1) while the single-stranded SBC LNA oligonucleotides still are capable to hybridize to complementary non-modified LNA oligonucleotides as well as DNA oligonucleotides with increased Tm.

aagagtccagtg = test: Tm of chimeric LNA-DNA 12-mers, Gluc53as-A, perfect duplex; format: binding; conditions: Table 5, Gluc53as-A, duplexes 2 μM, buffer as Table 4
Description: (§2) The thermal denaturation experiments were performed on a Perkin-Elmer UV/VIS spectrometer fitted with a PTP-6 Peltier temperature-programming element using a medium salt buffer solution (10 mM sodium phosphate, 100 mM sodium chloride, 0.1 mM EDTA, pH 7.0). […] The absorbance was monitored at 260 nm while raising the temperature at a rate of 1° C. per min. The melting temperatures (Tm values) of the duplexes were determined as the maximum of the first derivatives of the melting curves obtained.

aagaggccagtg = test: Tm of chimeric LNA-DNA 12-mers, Gluc53as-A, singly mismatched duplex; format: binding; conditions: for Tm (± 0.5° C.) of the duplexes with DNA oligonucleotide aagaggccagtg: Table 5, Gluc53as-A, singly mismatched, duplexes 2 μM, buffer as Table 4; for ΔTm between singly mismatched and perfect duplexes (Gluc53as-A): Table 5, value in brackets
Description: as §2

caacaacccaca = test: Tm of chimeric LNA-DNA 12-mers, HNFas128A-2, singly mismatched duplex; format: binding; conditions: for Tm (± 0.5° C.) of the duplexes with DNA oligonucleotide caacaacccaca: Table 5, HNFas128A-2, singly mismatched, duplexes 2 μM, buffer as Table 4; for ΔTm between singly mismatched and perfect duplexes (HNFas128A-2): Table 5, value in brackets
Description: as §2

caacatcccaca = test: Tm of chimeric LNA-DNA 12-mers, HNFas128A-2, perfect duplex; format: binding; conditions: Table 5, HNFas128A-2, perfect duplex; duplexes 2 μM; buffer as Table 4
Description: as §2

3′-ACGGCCAC-5′ = test: Tm of LNA:DNA and DNA:DNA 8-mer duplexes, single mismatch (Table 2); format: binding; conditions: for ΔTm: perfect match vs single mismatch
Text: (§3) It is often difficult to design probes and primers with the same range of melting temperature due to the variance in A/T and G/C content of the probing sites. Highly A/T rich regions typically give lower Tm values. Furthermore, if single mismatches are to be resolved, G/T mismatches are known to contribute little to ΔTm. As discussed above, the use of LNA is a desirable way to solve problems related to multiplex use of primers and probes. LNA offers the possibility to adjust Tm and increase the ΔTm at the same time. LNA increases Tm with 4-8° C./substitution and Increases ΔTm in many cases with several 100% (Table 2 and FIG. 22).

3′-ACGACCAC-5′ = test: Tm of LNA:DNA and DNA:DNA 8-mer duplexes, perfect match (Table 2); format: binding
Text: as §3

3′-TG^2SUATC = test: Tm of duplexes of 6-mers with SBC-LNA 3′-TG^2SUATC; format: binding; conditions: Table 8; duplexes 2.5 μM; 0.1 M NaCl, 10 mM Na-phosphate pH 7.0, 10 mM EDTA
Description: as §1

3′-^2SUG^2SUA^2SUC = test: Tm of duplexes of 6-mers with SBC-LNA 3′-^2SUG^2SUA^2SUC; format: binding; conditions: Table 8; duplexes 2.5 μM; 0.1 M NaCl, 10 mM Na-phosphate pH 7.0, 10 mM EDTA
Description: as §1

3′-TGTATC = test: Tm of duplexes of 6-mers with LNA 3′-TGTATC; format: binding; conditions: Table 8; duplexes 2.5 μM; 0.1 M NaCl, 10 mM Na-phosphate pH 7.0, 10 mM EDTA
Description: as §1

3′-ctgtatcc = test: Thermal denaturation (Tm) of duplexes with complementary DNA 3′-ctgtatcc; format: binding; conditions: Table 8; duplexes 2.5 μM; 0.1 M NaCl, 10 mM Na-phosphate pH 7.0, 10 mM EDTA
Description: The complexing properties of oligonucleotides containing new LNA monomers 1-3 were assessed. Comparative binding data from an 8-mer LNA sequence is shown in Table 4 as the melting temperatures against complementary single-stranded DNA. An exemplary sequence for this comparison is GACATAGG, which is the central part of a capture probe used for SNP detection in GluclVS7-7asA (A:a mismatch position). The thermal stabilities of reference DNA duplexes (entries 1-7, Table 4) can be directly compared with their LNA counterparts (entries 8-14). […] The average melting temperatures of DNA and LNA 8-mers against complementary DNAs typically differ by about 40° C. […] (i.e., entries 1 and 4). D-nucleosides may facilitate a B to A helix transition, because the A-type structure of an LNA:DNA duplex is more suitable for effective D:t pairing. This stabilizing effect is expected to be even more pronounced for LNA:RNA duplexes, which can be very useful for construction of antisense or other gene-silencing reagents. The mismatch discrimination ability of the D-nucleoside was also studied (entry 11).
The absorbance was monitored at 260 nm while raising the temperature at a rate of 1° C. per min. The melting temperatures (Tm values) of the duplexes were determined as the maximum of the first derivatives of the melting curves obtained.

**Q.** With 5′-Fitc-tDDDt^2S U^2SU^2SUa-EQL as the compound, how does the “Tm ^a of self complementary duplexes” value [1] read?
**A.** 64.5 °C

**Q.** What does the source list for “cAmCtgGAmCtctt (CACTGGACTCTT; mixed-case modified oligonucleotide, notation key not given here) [chimeric LNA-DNA 12-mer, Gluc53as-A, with LNA-A]”?
**A.** Tm (± 0.5° C.) of the complementary duplexes with DNA oligonucleotide aagagtccagtg (aagagtccagtg): 61.5 °C; Tm (± 0.5° C.) of the duplexes with DNA oligonucleotide aagaggccagtg (aagaggccagtg): 50.6 °C; ΔTm between singly mismatched and perfect duplexes (Gluc53as-A) (aagaggccagtg): −10.9 °C

**Q.** Which “Tm (± 0.5° C.) of the complementary duplexes with DNA oligonucleotide aagagtccagtg” value (aagagtccagtg) does the source give for cAmCtgGDmCtctt here?
**A.** 65.3 °C

**Q.** And the “Tm (± 0.5° C.) of the duplexes with DNA oligonucleotide aagaggccagtg” value (aagaggccagtg)?
**A.** 45.4 °C

**Q.** And the “ΔTm between singly mismatched and perfect duplexes (Gluc53as-A)” value (aagaggccagtg)?
**A.** −19.9 °C

**Q.** Which melting point does the source give for `Nc1ncc2ncn([C@@H]3O[C@@]4(CO)CO[C@@H]3[C@@H]4O)c2n1` [Compound 23, (1S,3R,4R,7S)-3-(2-aminopurin-9-yl)-7-hydroxy-1-hydroxymethyl-2,5-dioxabicyclo[2.2.1]heptane] here?
**A.** 227.5 to 229 °C (dec.)

**Q.** For tGtggGDTGttg, which “Tm (± 0.5° C.) of the duplexes with DNA oligonucleotide caacaacccaca” value (caacaacccaca) is on record?
**A.** 49.7 °C

**Q.** What about the “ΔTm between singly mismatched and perfect duplexes (HNFas128A-2)” value (caacaacccaca) of the same compound?
**A.** −15.8 °C

**Q.** And the “Tm (± 0.5° C.) of the complementary duplexes with DNA oligonucleotide caacatcccaca” value (caacatcccaca)?
**A.** 65.5 °C

**Q.** Which “Tm of LNA:DNA Duplexes, Single mismatch 3′-ACGGCCAC-5′” value (3′-ACGGCCAC-5′) does the source give for “5′-TGCTGGTG-3′ [DNA 8-mer, reference compound]” here?
**A.** 25 °C

**Q.** What about the ΔTm (3′-ACGGCCAC-5′) of the same compound?
**A.** 10 °C

**Q.** And the “Tm of LNA:DNA Duplexes, Perfect match 3′-ACGACCAC-5′” value (3′-ACGACCAC-5′)?
**A.** 35 °C

**Q.** With 5′-DCDTDG as the compound, how does the “Tm of the duplexes with 3′-TG^2SUATC” value (3′-TG^2SUATC) read?
**A.** 95 °C

**Q.** What about the “Tm of the duplexes with 3′-^2SUG^2SUA^2SUC” value (3′-^2SUG^2SUA^2SUC) of the same compound?
**A.** 59 °C

**Q.** And the “Tm of the duplexes with 3′-TGTATC” value (3′-TGTATC)?
**A.** >97 °C

**Q.** And the “Tm of the duplexes with 3′-ctgtatcc” value (3′-ctgtatcc)?
**A.** 55 °C

**Q.** For “tGtggGATGttg (TGTGGGATGTTG; chemistry not given here) [chimeric LNA-DNA 12-mer, HNFas128A-2, with LNA-A]”, which “Tm (± 0.5° C.) of the duplexes with DNA oligonucleotide caacaacccaca” value (caacaacccaca) is on record?
**A.** 45.9 °C

**Q.** What about the “ΔTm between singly mismatched and perfect duplexes (HNFas128A-2)” value (caacaacccaca) of the same compound?
**A.** −15.1 °C

**Q.** What about the “Tm (± 0.5° C.) of the complementary duplexes with DNA oligonucleotide caacatcccaca” value (caacatcccaca) of the same compound?
**A.** 61.0 °C

**Q.** Which results are given for 5′-ACDTAG?
**A.** Tm of the duplexes with 3′-TG^2SUATC (3′-TG^2SUATC): 75 °C; Tm of the duplexes with 3′-^2SUG^2SUA^2SUC (3′-^2SUG^2SUA^2SUC): 73 °C; Tm of the duplexes with 3′-TGTATC (3′-TGTATC): 93 °C; Tm of the duplexes with 3′-ctgtatcc (3′-ctgtatcc): 37 °C

**Q.** Which “Tm ^a of self complementary duplexes” value [1] does the source give for 5′-Fitc-taDDT^2SU^2SUta-EQL here?
**A.** 53.5 °C

**Q.** Which “Tm of the duplexes with 3′-TG^2SUATC” value (3′-TG^2SUATC) does the source give for 5′-ACATAG here?
**A.** 85 °C

**Q.** And the “Tm of the duplexes with 3′-^2SUG^2SUA^2SUC” value (3′-^2SUG^2SUA^2SUC)?
**A.** 83 °C

**Q.** And the “Tm of the duplexes with 3′-TGTATC” value (3′-TGTATC)?
**A.** 82 °C

**Q.** And the “Tm of the duplexes with 3′-ctgtatcc” value (3′-ctgtatcc)?
**A.** 27 °C

**Q.** Which results are given for 5′-Fitc-tAAATTTTA-EQL?
**A.** Tm ^a of self complementary duplexes [1]: >90 (94-96) ° C.; Tm ^a of self complementary duplexes ([1]; listed as Table 7 entry 1): 90 °C

**Q.** What does the source list for 5′-TGCTGGTG-3′ [LNA 8-mer]?
**A.** Tm of LNA:DNA Duplexes, Single mismatch 3′-ACGGCCAC-5′ (3′-ACGGCCAC-5′): 45 °C; ΔTm (3′-ACGGCCAC-5′): 26 °C; Tm of LNA:DNA Duplexes, Perfect match 3′-ACGACCAC-5′ (3′-ACGACCAC-5′): 71 °C

Reference: patent US20060147924A1, “Population of nucleic acids including a subpopulation of lna oligomers” (priority 2002, published 2006)
